In patent US20060127980A1, “Human excitatory amino acid transporter-2 gene promoter and uses thereof” (priority 2003, published 2006):

Tests used:
hEAAT2 mRNA = assay: Northern blot of hEAAT2 mRNA in PHFA treated with modulators; format: cell-based, human; conditions: 7-day treatment, EGF 30 ng/ml, TGF-α 30 ng/ml, dbcAMP 200 μM, bromo-cAMP 100 μM, TNF-α 200 U/ml
Experimental: (§1) FIG. 4A-D. Effect of modulators of hEAAT2 activity on hEAAT2 expression and hEAAT2 promoter activity in PHFA. A. A Northern analysis of hEAAT2 and GAPDH mRNA expression following treatment with EGF (30 ng/ml), TGF-α (30 ng/ml), dbcAMP (200 μM, bromo-cAMP (100 μM) or TNF-α (200 U/ml) for 7 days. B. Nuclear run-on assays determining the relative rates of hEAAT2 and GAPDH transcription as a function of 7-day treatment with the same concentrations of the indicated agents. C. A time course of mRNA expression of hEAAT2 and GAPDH following treatment with EGF, bromo-cAMP or TNF-α (same concentrations as in A.). D. Fold luciferase activity in PHFA transfected with flhEAAT2Prom-luc or various deletion mutants of hEAAT2 and non-transfected controls treated with the indicated compounds for four days.
Northern and Western Blotting Assays. Total cellular RNA was isolated by the guanidinium/phenol extraction method and Northern blotting was performed as described (Huang et al., 2001, Oncogene 20(48):7051-7063; Su et al., 2000, Oncogene 19(30):3411-3421; Su et al., 2001, Nucleic Acids Res 29(8):1661-1671). Western blotting assays were performed as described (Su et al., 1998, Proc Natl Acad Sci USA 95(24):14400-14405; Su et al., 2002, Oncogene 21(22):3592-602).
Positive and Negative Regulation of hEAAT2 Transcription, Promoter Activity and mRNA Levels in PHFA. Several enhancers of GLT-1 expression in rat astrocytes have been identified, including epidermal growth factor (EGF), transforming growth factor-α (TGF-α) and dibutyryl cyclic AMP (dbcAMP) (Swanson et al., 1997, J Neurosci 17(3):932-940; Zelenaia et al., 2000, Mol Pharmacol 57(4):667-678). Based on these considerations, experiments were performed to determine if these agents similarly modify human hEAAT2 expression in PHFA. Consistent with previous observations in rat astrocytes, 7-day treatment with EGF, TGF-α, and two analogs of cAMP, dbcAMP and bromo-cAMP, stimulated hEAAT2 mRNA expression in PHFA, whereas TNF-α decreased expression (FIG. 4B). […] In contrast, TNF-α decreased expression by 48 h (FIG. 4C).

hEAAT2 promoter = assay: flhEAAT2Prom-luc and deletion mutant luciferase reporter assay in PHFA treated with modulators; format: cell-based, human; conditions: four day treatment
Experimental: as §1
Construction of hEAAT2 Promoter Deletion Mutants and Performance of the Luciferase Assays. 5′-deletion mutants of the hEAAT2 promoter were made with exonuclease III digestion using the Erase-A-Base System (Promega) as described for the PEG-3 promoter (Su et al., 2000, Oncogene 19(30):3411-3421). The flhEAAT2Prom-luc and flhEAAT2Prom-luc deletion mutants were cloned into the pGL3-basic luciferase reporter vector (Promega) and luciferase reporter assays were performed as described (Su et al., 2000, Oncogene 19(30):3411-3421; Su et al., 2001, Nucleic Acids Res 29(8):1661-1671), except that instead of using lipofectamine, which was toxic to PHFA, the calcium phosphate precipitation transfection technique was used (Babiss et al., 1986, Proc Natl Acad Sci USA 83(7):2167-2171).
Preferential Expression of the hEAAT2 Promoter in PHFA and Deletion Analysis of the hEAAT2 Promoter. hEAAT2 is expressed in brain-derived cells, mainly astrocytes (Tanaka et al., 1997, Science 276(5319):1699-1702; Anderson et al., 2000, Glia 32(1):1-14). Experiments were performed to confirm hEAAT2 promoter activity in normal human astrocytes and to determine expression levels in other cell types (FIG. 2A). Primary early passage and established human normal and tumor cell lines were co-transfected with a putative full-length ˜2.5 kb hEAAT2 promoter, a SacII fragment extending from bp −2426 to bp +44, was cloned into the pGL3-basic vector (Promega), where it drove expression of the firefly luciferase (luc) gene, and a pSV-β-galactosidase expression plasmid. Relative fold expression of a full length hEAAT2 promoter-luciferase (flhEAAT2Prom-luc) construct was determined as described (Su et al., 2000, Oncogene 19(30):3411-3421; Su et al., 2001, Nucleic Acids Res 29(8):1661-1671), and activity versus transfection with a pSV-β-galactosidase plasmid was calculated as described (Su et al., 2000, Oncogene 19(30):3411-3421; Su et al., 2001, Nucleic Acids Res 29(8):1661-1671) to equalize for differences in transfection efficiency.
To examine further the relationship between hEAAT2 and treatment with the various glutamate transporter modulators, transient transfection assays were performed in PHFA using the flhEAAT2Prom-luc constructs and various deletions thereof (FIG. 4D). […] In the case of dbcAMP, promoter activity was enhanced by ˜3-fold.

CCCC(=O)Nc1ncnc2c1ncn2[C@@H]1O[C@@H]2COP(=O)(O)O[C@H]2[C@H]1OC(=O)CCC [dbcAMP, dibutyryl cyclic AMP]
hEAAT2 mRNA expression (hEAAT2 mRNA): stimulated
stimulation of promoter activity after deletion of bp −2426 to bp −703 (hEAAT2 promoter; deletion mutant): did not significantly decrease
upregulation of promoter activity after deletion of bp −703 to bp −326 (hEAAT2 promoter; deletion mutant): most relevant
upregulation of hEAAT2 promoter activity (hEAAT2 promoter; flhEAAT2Prom-luc): ~3 fold
